Patent US12102640B2, “Use of dopamine and serotonin receptor antagonists for treatment in a subject with retinal degeneration” (United States Government as represented by the Department …, priority 2015, dated 2024)
“Also recorded” adds a separate entry of the source.

Assays:
P23H rat RGCs = experiment: Light sensitivity (intensity-response functions) of RGCs in isolated P23H rat retina, extracellular recording; type: cell-based; settings: for number of RGCs tested whose sensitivity was increased / average lowering of light intensity (increase in light sensitivity): P23H rat RGCs; for number of RGCs tested whose sensitivity was increased: one cell per retina; for average lowering of light intensity (increase in light sensitivity): difference of means before vs during drug; for light intensity at which the pre-drug half-maximum response was obtained in the presence of the drug, average: mean±SD of P23H rat RGCs (n=4-12), 100 ms flashes, concentration not given; for increase in light sensitivity of the representative RGC / light intensity that evoked the pre-drug half-maximum response with application of the drug, representative RGC: single representative P23H rat RGC; for light intensity that evoked the pre-drug half-maximum response with application of the drug, representative RGC: bath applied ~10 min, relative to 8.5×10^17 photons/cm^2/s
Description: P23H-line 1 homozygous rats (age range 22-37 weeks) were used. Breeding pairs of P23H-line 1 homozygous rats were generously donated by Dr. Matthew LaVail (University of California San Francisco, CA). The room light was kept on a 12 hr light/dark cycle using standard fluorescent lighting. During the light cycle, the illumination at the level of the cages was 100-200 lux.
(§1) On the day of an experiment, a rat was euthanized with sodium pentobarbital (150 mg/kg, i.p.), and the eyes were removed and hemisected under normal room light. After removal of the vitreous humour from each eye, one eyecup was transferred to a holding vessel containing bicarbonate-buffered Ames medium (Sigma-Aldrich), which was continuously gassed at room temperature with 5% CO2/95% O2. The retina of the other eyecup was gently peeled from the retinal pigment epithelium/choroid and trimmed into a square of ˜12 mm^2. The retina was then placed photoreceptor side down in a small volume (0.1 ml) chamber. The chamber was mounted on a fixed-stage upright microscope (Nikon Eclipse E600FN), and the retina superfused at 1.5 ml/min with bicarbonate-buffered Ames medium supplemented with 2 mg/ml D-(+) glucose and equilibrated with 5% CO2/95% O2. An in-line heating device (Warner Instruments) was used to maintain recording temperature at 35-36° C. The retina of the other eyecup was used later in the day.
(§2) Electrical Recording: Action potentials (spikes) were recorded extracellularly from individual RGCs. With the aid of red light (>630 nm) that was delivered from below the chamber, the tip of a glass insulated platinum/tungsten microelectrode (0.6-1.0 MΩ impedance; Thomas Recording GmbH, Germany) was visually advanced to the retinal surface with a motor-driven micromanipulator. Extracellular potentials from RGCs were amplified and bandpass filtered at 100 to 5000 Hz by a differential amplifier (Xcell-3; FHC, Bowdoin, ME). […] Spikes from single RGCs were converted to standard transistor to transistor logic (TTL) pulses with a time-amplitude window discriminator (APM Neural Spike Discriminator, FHC). A laboratory data acquisition system (1401 Processor and Spike2 software; Cambridge Electronic Design Ltd., Cambridge, UK) was used to digitize the TTL pulses and raw spike train data.
(§3) Light from a mercury arc lamp illuminated an aperture that was focused on the retina from above, through the 4× objective of the microscope. The image produced on the retina was either a 250-μm or 1.5-mm diameter spot, which was centered on the recorded RGC. In the light path was a 545 nm interference filter (bandwidth, 30 nm). The intensity of the unattenuated light stimulus on the retina, measured with a spectroradiometer (ILT900-R, International Light Technologies), was 8.5×10^17 photons/cm^2/s. Light intensities are expressed herein in log units relative to the unattenuated light intensity. An electromechanical shutter (Uniblitz, Rochester, NY) was used to control the stimulus duration, which was set to 100 ms in constructing intensity response curves. During recordings from RGCs, light flashes were presented with interstimulus intervals of 3-15 s (depending upon the duration and intensity of the light stimulus) to avoid any adapting effect of the previous flash. All experiments were performed in a dimly lighted room (10 lux).
(−)-Sulpiride was purchased from Tocris Bioscience (Minneapolis, MN). Sulpiride was dissolved in a small amount of dimethylsulphoxide (DMSO) and diluted in physiological saline. The drug solution was applied to the bathing solution using a calibrated syringe pump (Razel Scientific Instruments). Drug was bath applied for ˜10 min to ensure stable responses before effects were examined. Only one cell was studied in each retina to avoid possible residual drug effects.
Intensity-response curves were generated from the responses of RGCs to 100 ms flashes of light. The light stimulus was either a 250-μm or 1.5-mm diameter spot. […]

[1] = test system: long-latency ON-center P23H rat RGC; experiment: Light responses of long-latency ON-center RGCs to a 250-μm spot (spike rasters, PSTHs); type: cell-based; settings: sulpiride 12 µM, clozapine 5 μM, aripiprazole 5 μM, eticlopride 1 µM, MDL-100907 640 nM
Description: as §1, §2, §3
(−)-Sulpiride and clozapine were purchased from Tocris Bioscience (Minneapolis, MN). Aripiprazole was purchased from Sigma-Aldrich (St. Louis, MO). Sulpiride and clozapine were dissolved in a small amount of dimethylsulphoxide (DMSO) and diluted in physiological saline. Aripiprazole was dissolved in a small amount of 1 mM HCl and diluted in physiological saline. As in Example 1, the drug solutions were applied to the bathing solution using calibrated syringe pumps (Razel Scientific Instruments). Drugs were bath applied for ˜10 min to ensure stable responses before effects were examined. Only one cell was studied in each retina to avoid possible residual drug effects. P23H rat RGCs were identified as either ON-center or OFF-center cells from their responses to a 500-700 ms flash of a small (250-μm diameter) spot of light centered over the receptive field. ON-center cells elicit an excitatory response to the onset but not to the offset of the spot of light, whereas OFF-center cells elicit an excitatory response to the offset of the spot of light. […]

[2] = test system: D2 and D3 receptors over D4 receptors; settings: compared with sulpiride; cited from earlier work
OFF-center P23H rat RGC = experiment: Light responses of OFF-center RGCs that show a long-latency ON response; type: cell-based; settings: 250-μm spot; sulpiride 9 µM, aripiprazole 5 µM
Description: as §1, §2
as §3, with “During recordings from RGCs, light flashes were presented with interstimulus intervals of 3-15 s (depending upon the duration and intensity of the light stimulus) to avoid any adapting effect of the previous flash. All experiments were performed in a dimly lighted room (10 lux).” left out

[3] = sulpiride 13 µM, L-745,870 1 µM
[4] = pooled data of MDL-100907 and SB-242084, 6 P23H rat RGCs
[5] = eticlopride 1 μM, 6 P23H rat RGCs

## Cl.Cl.Cl.Clc1ccc(N2CCN(Cc3c[nH]c4ncccc34)CC2)cc1 [L-745,870, 3-(4-[4-Chlorophenyl]piperazin-1-yl)-methyl-1-H-pyrrolo[2,3-b]pyridinetrihydrochloride]
P23H rat RGCs
  number of RGCs tested whose sensitivity was increased: 11 of the 12
  average lowering of light intensity (increase in light sensitivity): 0.21 log unit
  light intensity at which the pre-drug half-maximum response was obtained in the presence of the drug, average: −3.31±0.54 log units attenuation
P23H rat RGCs; [3]
  increase in light sensitivity of the representative RGC: 0.34 log unit
  light intensity that evoked the pre-drug half-maximum response with application of the drug, representative RGC: −3.69 log units attenuation

## CCN1CCCC1CNC(=O)c1cc(S(=O)(=O)CC)c(N)cc1OC (stereo not drawn) [amisulpride]
P23H rat RGCs
  number of RGCs tested whose sensitivity was increased: all 5
  average lowering of light intensity (increase in light sensitivity): 0.39 log unit
  light intensity at which the pre-drug half-maximum response was obtained in the presence of the drug, average: −3.67±0.30 log units attenuation

## COc1cccc([C@H](O)C2CCN(CCc3ccc(F)cc3)CC2)c1OC [MDL-100907]
P23H rat RGCs; [4]
  average increase in sensitivity, pooled 5-HT2 antagonists: 0.25 log unit
  average light sensitivity during drug, pooled 5-HT2 antagonists: −3.25 log units
[1]
  effect on the OFF response: appeared; also recorded: brought out an OFF response
  effect on the long-latency ON response: abolished; also recorded: eliminated

## CCc1cc(Cl)c(OC)c(C(=O)NC[C@@H]2CCCN2CC)c1O [eticlopride, (−)-Eticlopride]
[2]
  selectivity for D2 and D3 receptors over D4 receptors: greater selectivity than sulpiride
P23H rat RGCs; [5]
  average increase in light sensitivity: 0.31 log unit
  average light sensitivity during drug: −3.07 log units
  cells showing an increase in light sensitivity: All cells
[1]
  effect on the OFF response: appeared; also recorded: brought out an OFF response
  effect on the long-latency ON response: abolished; also recorded: eliminated

## CN1CCN(C2=Nc3cc(Cl)ccc3Nc3ccccc32)CC1 [clozapine]
P23H rat RGCs
  average lowering of light intensity (increase in light sensitivity): 0.30 log unit
  light intensity at which the pre-drug half-maximum response was obtained in the presence of the drug, average: −3.56±0.55 log units attenuation

## CCN1CCC[C@H]1CNC(=O)c1cc(S(N)(=O)=O)ccc1OC [sulpiride, (−)-Sulpiride]
OFF-center P23H rat RGC
  effect on the OFF response: remained intact; also recorded: spared
  effect on the delayed (long-latency) ON response: reduced; also recorded: diminished
P23H rat RGCs
  number of RGCs tested whose sensitivity was increased: 8 of the 9
  average lowering of light intensity (increase in light sensitivity): 0.29 log unit
  light intensity at which the pre-drug half-maximum response was obtained in the presence of the drug, average: −3.17±0.27 log units attenuation
P23H rat RGCs; single P23H rat RGC, sulpiride 13 µM, L-745,870 1 µM
  shift of the intensity-response curve: to the left
P23H rat RGCs; [3]
  increase in light sensitivity of the representative RGC: 0.44 log unit
  light intensity that evoked the pre-drug half-maximum response with application of the drug, representative RGC: −3.47 log units attenuation
[1]
  effect on the OFF response: appeared; also recorded: brought out an OFF response
  effect on the long-latency ON response: abolished; also recorded: eliminated

## O=C(CCCN1CCC(O)(c2ccc(Cl)cc2)CC1)c1ccc(F)cc1 [haloperidol]
P23H rat RGCs
  number of RGCs tested whose sensitivity was increased: all 4
  average lowering of light intensity (increase in light sensitivity): 0.28 log unit
  light intensity at which the pre-drug half-maximum response was obtained in the presence of the drug, average: −3.39±0.43 log units attenuation

## O=C1CCc2ccc(OCCCCN3CCN(c4cccc(Cl)c4Cl)CC3)cc2N1 [aripiprazole]
OFF-center P23H rat RGC
  effect on the OFF response: remained intact; also recorded: spared
  effect on the delayed (long-latency) ON response: reduced; also recorded: eliminated
P23H rat RGCs
  average lowering of light intensity (increase in light sensitivity): 0.27 log unit
  light intensity at which the pre-drug half-maximum response was obtained in the presence of the drug, average: −3.54±0.36 log units attenuation
[1]
  effect on the OFF response: appeared; also recorded: brought out an OFF response
  effect on the long-latency ON response: still present; also recorded: did not eliminate
